Test results from ChEMBL document CHEMBL1201862, “PubChem BioAssay data set” (2004).
Active and inactive are the calls of the source.

Columns and labels:
[1] = Luminescence Cell-Based Dose Retest to Confirm Inhibitors of Cancer Stem Cells. [Related pubchem assays (depositor defined):AID2717, AID2721]; type: functional; conditions: Homo sapiens
[2] = molecular target: Neurotensin receptor type 1 (Homo sapiens, UniProt P30989); type: functional;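 also: Image-based confirmatory dose-response assay measuring agonist activity at NTR1; NTR1-expressing U2OS osteosarcoma cells imaged for beta-arrestin GFP spot formation; agonist potency where compounds increase beta-arrestin recruitment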
Neutrophil collagenase = Neutrophil collagenase (Homo sapiens, UniProt P22894); test: MMP13 inhibition and MMP selectivity, late-stage follow-up, selectivity assay for MMP13 inhibitor project, biochemical, probe development, late stage results, panel member MMP-8 [IC50 Assay] (AID 2067)
[3] = molecular target: T1, DNA repair and recombination protein RAD54-like (Homo sapiens, UniProt Q92698); test: inhibitors of human RAD54 branch migration, confirmation, biochemical, fluorescence, cherry-picked samples, dose series (AID 651657); type: functional
T1 sequence (Q92698 whole entry): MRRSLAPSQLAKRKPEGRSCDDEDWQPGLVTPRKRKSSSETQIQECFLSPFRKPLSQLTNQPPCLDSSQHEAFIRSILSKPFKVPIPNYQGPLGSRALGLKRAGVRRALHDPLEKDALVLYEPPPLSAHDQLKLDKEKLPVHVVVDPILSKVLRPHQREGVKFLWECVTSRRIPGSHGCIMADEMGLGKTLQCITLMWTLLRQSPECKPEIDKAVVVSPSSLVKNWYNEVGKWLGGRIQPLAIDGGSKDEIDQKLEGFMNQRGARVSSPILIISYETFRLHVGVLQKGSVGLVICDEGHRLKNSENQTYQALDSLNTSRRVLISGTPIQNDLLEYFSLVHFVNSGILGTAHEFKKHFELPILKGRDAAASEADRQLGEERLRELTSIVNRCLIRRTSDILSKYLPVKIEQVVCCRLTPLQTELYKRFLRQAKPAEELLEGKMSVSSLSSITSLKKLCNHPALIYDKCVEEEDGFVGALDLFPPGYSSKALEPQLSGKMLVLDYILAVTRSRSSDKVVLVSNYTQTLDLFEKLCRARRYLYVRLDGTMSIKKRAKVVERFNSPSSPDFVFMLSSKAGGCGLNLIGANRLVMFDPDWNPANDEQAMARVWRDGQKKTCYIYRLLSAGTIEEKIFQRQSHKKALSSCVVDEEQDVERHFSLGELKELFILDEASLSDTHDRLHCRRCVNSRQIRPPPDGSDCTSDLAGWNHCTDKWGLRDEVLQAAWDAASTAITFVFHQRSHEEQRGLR

Bcl-2-like protein 10 = Bcl-2-like protein 10 (Homo sapiens, UniProt Q9HD36); test: displacers of TR3 peptide from Bcl-B, primary screen, selectivity assay for Bfl-1 inhibitor project, biochemical, fluorescence polarization, FITC-TR3 peptide (AID 748);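 also: fluorescence polarization from a fluorescein-labelled TR3 peptide binding purified Bcl-B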
[4] = HeLa cell cytotoxicity, dose response, cytotoxicity control for MgcRacGAP inhibitor project (AID 624300); type: functional
[5] = molecular target: T2, Rac GTPase-activating protein 1 (Homo sapiens, UniProt Q9H0H5); test: MgcRacGAP GTPase-activating activity inhibitors, confirmation, biochemical, ADP Hunter fluorescence, primary and confirmatory (AID 624330); type: functional
T2 sequence (Q9H0H5 whole entry): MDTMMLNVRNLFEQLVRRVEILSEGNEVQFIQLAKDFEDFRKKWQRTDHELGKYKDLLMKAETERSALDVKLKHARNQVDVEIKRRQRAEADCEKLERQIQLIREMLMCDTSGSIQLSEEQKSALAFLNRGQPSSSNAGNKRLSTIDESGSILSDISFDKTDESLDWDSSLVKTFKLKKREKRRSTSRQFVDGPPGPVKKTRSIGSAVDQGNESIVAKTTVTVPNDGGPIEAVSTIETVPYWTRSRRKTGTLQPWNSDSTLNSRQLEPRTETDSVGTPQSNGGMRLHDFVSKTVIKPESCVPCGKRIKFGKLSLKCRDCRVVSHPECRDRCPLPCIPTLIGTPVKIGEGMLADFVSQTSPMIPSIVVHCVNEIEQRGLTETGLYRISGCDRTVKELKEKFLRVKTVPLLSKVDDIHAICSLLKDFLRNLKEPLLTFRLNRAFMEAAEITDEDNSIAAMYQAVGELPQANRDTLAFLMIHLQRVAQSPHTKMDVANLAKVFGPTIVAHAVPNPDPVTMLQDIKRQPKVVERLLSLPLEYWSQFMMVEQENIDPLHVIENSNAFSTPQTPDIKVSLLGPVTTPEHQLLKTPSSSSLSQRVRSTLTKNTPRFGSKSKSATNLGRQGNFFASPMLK

[6] = molecular target: Scavenger receptor class B member 1 (Mus musculus, UniProt Q61009); test: inhibitors of SR-BI mediated HDL lipid uptake, dose response, ldlA[mSR-BI] cells, fluorescence, cherry pick (AID 493194); type: functional, cell-based;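 also: cellular uptake of fluorescent DiI-labeled HDL measured as cell fluorescence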
[7] = molecular target: T3, Tyrosine-protein phosphatase non-receptor type 7 (Homo sapiens, UniProt P35236); test: redox-dependent HePTP inhibition, mechanism study, biochemical, fluorescence (AID 2068); type: functional
T3 sequence (P35236 whole entry): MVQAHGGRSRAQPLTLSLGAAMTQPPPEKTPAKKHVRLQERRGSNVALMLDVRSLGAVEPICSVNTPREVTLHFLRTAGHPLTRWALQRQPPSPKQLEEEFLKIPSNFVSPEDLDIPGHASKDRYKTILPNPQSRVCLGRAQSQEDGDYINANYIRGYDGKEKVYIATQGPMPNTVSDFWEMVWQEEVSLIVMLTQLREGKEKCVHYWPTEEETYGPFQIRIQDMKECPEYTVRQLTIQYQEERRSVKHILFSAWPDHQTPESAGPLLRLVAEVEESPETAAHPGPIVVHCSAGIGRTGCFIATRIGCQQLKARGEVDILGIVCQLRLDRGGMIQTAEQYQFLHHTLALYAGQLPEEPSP

[8] = molecular target: Tyrosine-protein phosphatase non-receptor type 12 (Homo sapiens, UniProt Q05209); test: SAR Selectivity Analysis of small molecule inhibitors of PEST using pCAP in a fluorescence assay. [Related pubchem assays (depositor defined):AID1779, AID1784, AID2135]; type: functional
[9] = molecular target: T4, Dual specificity protein phosphatase 3 (Homo sapiens, UniProt P51452); test: SAR VHR1 absorbance Assay for In Vitro dose response studies. [Related pubchem assays (depositor defined):AID1654, AID1661, AID1878, AID1992, AID2004]
[10] = molecular target: T4, Dual specificity protein phosphatase 3; test: MOA VHR1 Fluorescent secondary assay for identification of redox-state modulating compounds. [Related pubchem assays (depositor defined):AID1654, AID1661, AID1878, AID1957]
[11] = molecular target: T4, Dual specificity protein phosphatase 3; test: SAR VHR1 Fluorescent Assay for In Vitro dose response studies. [Related pubchem assays (depositor defined):AID1654, AID1661, AID1878, AID1992, AID2004, AID2070, AID2085]; type: functional
[12] = molecular target: T5, Tyrosine-protein phosphatase non-receptor type 22 (Homo sapiens, UniProt Q9Y2R2); test: LYP (PTPN22) phosphatase inhibitor potency, SAR follow-up, biochemical, pCAP fluorogenic substrate, fluorescence, set 3 (AID 449727); type: functional
T5 sequence (Q9Y2R2 whole entry): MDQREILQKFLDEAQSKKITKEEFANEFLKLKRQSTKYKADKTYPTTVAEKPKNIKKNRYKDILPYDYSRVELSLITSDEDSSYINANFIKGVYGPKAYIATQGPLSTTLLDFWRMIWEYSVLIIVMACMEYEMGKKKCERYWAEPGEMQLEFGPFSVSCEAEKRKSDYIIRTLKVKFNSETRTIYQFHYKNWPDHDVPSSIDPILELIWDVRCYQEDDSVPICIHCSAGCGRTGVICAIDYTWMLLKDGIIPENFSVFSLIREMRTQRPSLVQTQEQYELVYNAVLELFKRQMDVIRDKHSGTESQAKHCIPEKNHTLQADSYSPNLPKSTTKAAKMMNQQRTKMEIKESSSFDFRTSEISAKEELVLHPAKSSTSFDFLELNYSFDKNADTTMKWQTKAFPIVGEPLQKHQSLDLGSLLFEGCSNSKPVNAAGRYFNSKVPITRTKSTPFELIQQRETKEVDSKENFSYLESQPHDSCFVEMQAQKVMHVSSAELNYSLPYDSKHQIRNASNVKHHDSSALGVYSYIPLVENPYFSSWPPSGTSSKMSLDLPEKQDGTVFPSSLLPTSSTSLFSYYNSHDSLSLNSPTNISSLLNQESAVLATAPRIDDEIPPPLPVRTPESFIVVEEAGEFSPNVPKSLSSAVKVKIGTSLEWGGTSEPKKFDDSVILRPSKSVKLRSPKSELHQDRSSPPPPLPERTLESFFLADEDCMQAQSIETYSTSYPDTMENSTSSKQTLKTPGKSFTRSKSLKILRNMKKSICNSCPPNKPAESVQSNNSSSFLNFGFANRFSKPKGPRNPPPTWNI

[13] = molecular target: DNA (cytosine-5)-methyltransferase 1 (Homo sapiens, UniProt P26358); test: DNMT1 methyltransferase inhibitors, confirmation, biochemical, fluorescent molecular beacon (AID 602386); type: functional
[14] = molecular target: T6, Dual specificity protein phosphatase 6 (Rattus norvegicus, UniProt Q64346); type: functional;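 also: confirmatory in vitro dose-response testing of MKP-3 inhibition; recombinant His-tagged MKP-3 made in E. coli BL21 with OMFP substrate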
T6 sequence (Q64346 whole entry): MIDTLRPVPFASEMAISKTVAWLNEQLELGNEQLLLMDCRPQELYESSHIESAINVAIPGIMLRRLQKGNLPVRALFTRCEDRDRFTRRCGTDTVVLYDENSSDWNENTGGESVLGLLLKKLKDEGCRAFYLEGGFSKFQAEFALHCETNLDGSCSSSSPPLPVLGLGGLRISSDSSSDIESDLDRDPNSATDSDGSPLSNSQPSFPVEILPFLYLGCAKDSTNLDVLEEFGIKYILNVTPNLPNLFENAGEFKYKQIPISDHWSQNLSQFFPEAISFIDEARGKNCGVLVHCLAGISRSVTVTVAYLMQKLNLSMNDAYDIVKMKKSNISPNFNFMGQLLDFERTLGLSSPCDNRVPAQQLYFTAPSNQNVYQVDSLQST

[15] = molecular target: T7, Low molecular weight phosphotyrosine protein phosphatase (Homo sapiens, UniProt P24666); type: functional; conditions: read-out: IC50_Mean;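 also: Dose-response confirmation assay measuring inhibition of LMPTP enzyme activity by fluorescence intensity read-out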
T7 sequence (P24666 whole entry): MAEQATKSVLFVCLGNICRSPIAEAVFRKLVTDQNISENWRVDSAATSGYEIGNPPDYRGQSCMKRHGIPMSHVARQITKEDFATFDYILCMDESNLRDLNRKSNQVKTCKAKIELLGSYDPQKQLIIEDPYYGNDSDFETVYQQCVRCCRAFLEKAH

[16] = molecular target: T3, Tyrosine-protein phosphatase non-receptor type 7; test: HePTP (PTPN7) phosphatase inhibitor potency, SAR follow-up, biochemical, set 2 (AID 449736); type: functional
[17] = molecular target: T5, Tyrosine-protein phosphatase non-receptor type 22; test: SAR LYP1 Fluorescent Assay using OMFP substrate for In Vitro dose response studies - Set 3. [Related pubchem assays (depositor defined):AID1779, AID1784, AID2140, AID2686]; type: functional

T4 sequence (P51452 whole entry): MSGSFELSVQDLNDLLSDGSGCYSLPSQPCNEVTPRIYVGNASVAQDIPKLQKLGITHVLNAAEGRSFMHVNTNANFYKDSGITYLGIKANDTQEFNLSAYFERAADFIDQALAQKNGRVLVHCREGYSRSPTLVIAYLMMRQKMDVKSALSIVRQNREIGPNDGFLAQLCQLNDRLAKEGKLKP
Chain of Scavenger receptor class B member 1 (Q61009 whole entry): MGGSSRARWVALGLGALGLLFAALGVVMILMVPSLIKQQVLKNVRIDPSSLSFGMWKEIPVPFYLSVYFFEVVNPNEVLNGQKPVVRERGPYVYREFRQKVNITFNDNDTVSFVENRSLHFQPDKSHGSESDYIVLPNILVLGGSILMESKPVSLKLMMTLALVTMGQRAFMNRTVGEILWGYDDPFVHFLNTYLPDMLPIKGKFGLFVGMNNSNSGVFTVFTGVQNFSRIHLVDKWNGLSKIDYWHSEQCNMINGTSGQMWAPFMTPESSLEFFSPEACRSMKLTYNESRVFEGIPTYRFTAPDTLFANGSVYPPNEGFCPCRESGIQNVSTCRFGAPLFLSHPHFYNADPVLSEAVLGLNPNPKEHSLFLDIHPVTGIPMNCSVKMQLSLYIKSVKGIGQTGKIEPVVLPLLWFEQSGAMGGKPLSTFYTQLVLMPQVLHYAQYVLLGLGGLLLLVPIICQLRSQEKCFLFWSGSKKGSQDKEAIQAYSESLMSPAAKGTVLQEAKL
Chain of Neutrophil collagenase (P22894 whole entry): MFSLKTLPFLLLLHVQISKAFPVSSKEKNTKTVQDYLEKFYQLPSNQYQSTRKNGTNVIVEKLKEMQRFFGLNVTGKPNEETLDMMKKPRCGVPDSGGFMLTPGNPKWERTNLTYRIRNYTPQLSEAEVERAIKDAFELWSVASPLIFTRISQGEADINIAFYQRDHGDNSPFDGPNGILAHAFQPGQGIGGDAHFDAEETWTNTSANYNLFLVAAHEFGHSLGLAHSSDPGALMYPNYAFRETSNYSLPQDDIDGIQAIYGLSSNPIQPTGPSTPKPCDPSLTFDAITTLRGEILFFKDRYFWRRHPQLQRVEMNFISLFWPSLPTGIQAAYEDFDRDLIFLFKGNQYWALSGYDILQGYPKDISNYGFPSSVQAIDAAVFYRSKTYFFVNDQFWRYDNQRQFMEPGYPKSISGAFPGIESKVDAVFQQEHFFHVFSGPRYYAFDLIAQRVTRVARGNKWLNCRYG
Chain of DNA (cytosine-5)-methyltransferase 1 (P26358 whole entry): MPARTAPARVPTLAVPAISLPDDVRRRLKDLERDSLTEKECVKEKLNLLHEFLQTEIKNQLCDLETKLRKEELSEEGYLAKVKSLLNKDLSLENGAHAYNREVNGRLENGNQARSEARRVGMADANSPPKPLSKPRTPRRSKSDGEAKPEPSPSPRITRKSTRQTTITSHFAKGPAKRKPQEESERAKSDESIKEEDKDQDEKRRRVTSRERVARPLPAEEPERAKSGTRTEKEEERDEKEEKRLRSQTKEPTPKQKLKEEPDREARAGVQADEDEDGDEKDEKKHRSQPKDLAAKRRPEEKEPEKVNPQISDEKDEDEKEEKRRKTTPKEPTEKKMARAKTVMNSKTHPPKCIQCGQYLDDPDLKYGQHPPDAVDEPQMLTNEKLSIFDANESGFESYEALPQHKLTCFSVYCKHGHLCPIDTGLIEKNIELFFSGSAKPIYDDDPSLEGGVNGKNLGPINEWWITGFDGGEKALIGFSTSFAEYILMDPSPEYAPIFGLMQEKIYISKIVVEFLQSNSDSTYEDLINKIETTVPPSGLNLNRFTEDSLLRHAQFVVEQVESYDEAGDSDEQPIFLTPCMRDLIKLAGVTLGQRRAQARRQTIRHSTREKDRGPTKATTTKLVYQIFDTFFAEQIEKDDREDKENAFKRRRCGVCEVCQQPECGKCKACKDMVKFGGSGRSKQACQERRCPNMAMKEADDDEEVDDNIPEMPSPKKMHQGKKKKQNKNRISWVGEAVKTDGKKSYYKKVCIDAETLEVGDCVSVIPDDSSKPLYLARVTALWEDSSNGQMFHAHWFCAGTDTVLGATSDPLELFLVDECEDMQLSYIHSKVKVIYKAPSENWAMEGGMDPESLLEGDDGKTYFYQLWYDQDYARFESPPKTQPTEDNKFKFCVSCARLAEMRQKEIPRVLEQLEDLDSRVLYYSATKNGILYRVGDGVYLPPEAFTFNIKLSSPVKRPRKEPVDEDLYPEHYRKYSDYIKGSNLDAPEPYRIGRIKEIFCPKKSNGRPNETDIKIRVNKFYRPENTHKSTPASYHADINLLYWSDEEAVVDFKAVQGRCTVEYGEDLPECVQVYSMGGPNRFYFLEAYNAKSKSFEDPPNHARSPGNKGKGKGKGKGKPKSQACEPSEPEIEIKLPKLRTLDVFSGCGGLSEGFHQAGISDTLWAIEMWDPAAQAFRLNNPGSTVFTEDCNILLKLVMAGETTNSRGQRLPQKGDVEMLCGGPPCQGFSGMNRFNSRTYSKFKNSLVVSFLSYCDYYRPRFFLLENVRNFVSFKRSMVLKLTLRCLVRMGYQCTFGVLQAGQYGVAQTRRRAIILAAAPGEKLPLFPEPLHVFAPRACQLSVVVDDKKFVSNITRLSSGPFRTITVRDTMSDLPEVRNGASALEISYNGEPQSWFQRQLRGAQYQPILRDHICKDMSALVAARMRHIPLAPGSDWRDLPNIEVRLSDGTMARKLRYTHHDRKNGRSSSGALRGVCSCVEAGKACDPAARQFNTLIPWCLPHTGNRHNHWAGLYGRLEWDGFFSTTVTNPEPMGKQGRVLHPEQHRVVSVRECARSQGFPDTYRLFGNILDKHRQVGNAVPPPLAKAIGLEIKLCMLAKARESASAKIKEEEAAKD
Chain of Neurotensin receptor type 1 (P30989 whole entry): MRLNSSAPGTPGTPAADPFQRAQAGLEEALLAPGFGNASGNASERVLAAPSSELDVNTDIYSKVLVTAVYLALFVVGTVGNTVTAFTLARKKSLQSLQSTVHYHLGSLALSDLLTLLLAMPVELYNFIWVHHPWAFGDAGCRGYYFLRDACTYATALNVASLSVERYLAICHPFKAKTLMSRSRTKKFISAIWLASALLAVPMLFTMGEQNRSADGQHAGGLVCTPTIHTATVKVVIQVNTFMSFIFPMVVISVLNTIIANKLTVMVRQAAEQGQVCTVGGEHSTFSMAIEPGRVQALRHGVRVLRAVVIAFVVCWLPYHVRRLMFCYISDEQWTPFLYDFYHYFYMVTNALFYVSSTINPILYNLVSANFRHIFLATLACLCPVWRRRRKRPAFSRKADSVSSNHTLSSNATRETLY
Chain of Bcl-2-like protein 10 (Q9HD36 whole entry): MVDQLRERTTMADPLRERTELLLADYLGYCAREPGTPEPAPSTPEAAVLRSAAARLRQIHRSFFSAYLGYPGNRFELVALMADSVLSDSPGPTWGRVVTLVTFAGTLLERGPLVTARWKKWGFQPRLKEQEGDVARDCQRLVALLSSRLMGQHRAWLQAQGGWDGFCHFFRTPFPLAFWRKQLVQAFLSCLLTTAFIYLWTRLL
Chain of Tyrosine-protein phosphatase non-receptor type 12 (Q05209 whole entry): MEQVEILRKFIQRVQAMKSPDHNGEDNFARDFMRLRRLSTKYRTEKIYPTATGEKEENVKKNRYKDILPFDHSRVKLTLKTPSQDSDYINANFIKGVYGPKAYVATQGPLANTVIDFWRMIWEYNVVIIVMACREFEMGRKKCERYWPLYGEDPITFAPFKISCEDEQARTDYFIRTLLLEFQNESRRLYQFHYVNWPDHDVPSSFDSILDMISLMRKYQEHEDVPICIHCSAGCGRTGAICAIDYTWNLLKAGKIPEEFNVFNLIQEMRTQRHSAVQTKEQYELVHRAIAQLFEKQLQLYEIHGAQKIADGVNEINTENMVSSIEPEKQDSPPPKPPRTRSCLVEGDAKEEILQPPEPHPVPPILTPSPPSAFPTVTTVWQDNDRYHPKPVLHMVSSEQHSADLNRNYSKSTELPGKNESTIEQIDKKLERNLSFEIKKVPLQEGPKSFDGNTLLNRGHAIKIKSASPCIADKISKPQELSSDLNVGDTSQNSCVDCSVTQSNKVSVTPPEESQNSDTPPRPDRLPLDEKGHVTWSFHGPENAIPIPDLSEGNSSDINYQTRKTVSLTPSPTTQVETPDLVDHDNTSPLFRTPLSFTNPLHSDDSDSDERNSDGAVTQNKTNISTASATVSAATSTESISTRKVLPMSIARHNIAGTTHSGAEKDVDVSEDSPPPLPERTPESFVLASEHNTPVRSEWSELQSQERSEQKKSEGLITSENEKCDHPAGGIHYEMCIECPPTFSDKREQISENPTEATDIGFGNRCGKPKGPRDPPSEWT

CC1=C(C(=O)OC2CCCCCCC2)C(c2cc3c(cc2Br)OCO3)CC(=O)N1 (centres undefined)
active: AC50 [1] 3.59 µM | EC50 [2] 18.2 µM

Oc1nc(SCc2ccc(Cl)cc2)nc2c1CCC2
active: IC50 (Neutrophil collagenase) > 39.8 µM

CN(C)CCSc1nc(N)c2c3c(sc2n1)CN(C)CC3
active: AC50 [3] 28.9 µM | IC50 (Bcl-2-like protein 10) 46.2 µM

C=C(CN(C)C)C(=O)c1ccc(OC2OC(COC(C)=O)C(OC(C)=O)C(OC(C)=O)C2OC(C)=O)cc1 (centres undefined)
active: CC50 [4] 100 µM | IC50 [5] 162 µM | AC50 [6] 6.87 µM

CC1=C(C(=O)OC(C)C)C(c2ccc(Cl)cc2)n2c(sc(=Cc3ccc(OCC(=O)O)cc3)c2=O)=N1 (centres undefined)
active: IC50 [7] 0.391 µM | IC50 [8] 1.68 µM | IC50 [9] 0.967 µM | IC50 [10] 1.93 µM | IC50 [11] 12.3 µM | IC50 [12] 3.63 µM | IC50 [13] 5.43 µM | IC50 [14] 41.8 µM | IC50 [15] 6.66 µM | IC50 [16] 0.304 µM | IC50 [17] 4.01 µM
